The values that follow are results of earlier work, collected in article PMC7395068, “The evolution of strategies to minimise the risk of human drug-induced liver injury (DILI) in drug discovery and development” (Archives of Toxicology, 2020).

Where two headings read alike, the source gives them in different places.

For the series the following is noted: cited from earlier work.
Setting [1] is: binary in vivo human DILI call, ref Chen 2016.
[2] abbreviates: human DILI, LTKB DILIrank category, ref Chen 2016.

For the molecule `C[C@@H](O)[C@H]1C(=O)N2C(C(=O)O)=C(S[C@@H]3CN[C@H](C(=O)Nc4cccc(C(=O)O)c4)C3)[C@H](C)[C@H]12` [ertapenem], the “DILI +VE (5-8), DILI -VE (-4)” value under setting [1] is on record as “-VE”. In addition, the DILI severity category result under setting [2] is given as “Ambiguous DILI-concern”.
For `CN(C)CCC[C@@]1(c2ccc(F)cc2)OCc2cc(C#N)ccc21` [escitalopram], for the setting “in vivo”, the “DILI +VE (5-8), DILI -VE (-4)” value was “+VE” and the DILI severity category entry is listed as “vLess-DILI-Concern”.
Consider `COc1ccc2[n-]c([S@@+]([O-])Cc3ncc(C)c(OC)c3C)nc2c1.[Na+]` [esomeprazole Sodium], for which, for the setting “in vivo”, the “DILI +VE (5-8), DILI -VE (-4)” value is “+VE” and the DILI severity category result is “vLess-DILI-Concern”.
Regarding `Clc1ccc2c(c1)C(c1ccccc1)=NCc1nncn1-2` [estazolam], the “DILI +VE (5-8), DILI -VE (-4)” value under setting [1] is listed as “-VE”. Also, the DILI severity category result under setting [2] is recorded as “vNo-DILI-Concern”.
As to `C[C@]12CC[C@@H]3c4ccc(OC(=O)N(CCCl)CCCl)cc4CC[C@H]3[C@@H]1CC[C@@H]2O` [estramustine], under setting [1], the “DILI +VE (5-8), DILI -VE (-4)” value is reported as “+VE”. Besides, under setting [2], the DILI severity category result was “vMost-DILI-Concern”.
For the molecule `CN1CCN(C(=O)O[C@H]2c3nccnc3C(=O)N2c2ccc(Cl)cn2)CC1` [eszopiclone], the “DILI +VE (5-8), DILI -VE (-4)” value under setting [1] is “-VE”. For the same molecule, the DILI severity category result under setting [2] is listed as “Ambiguous DILI-concern”.
With `CCCCCCCC/C=C\CCCCCCCC(=O)O.NCCO` [ethanolamine oleate], the “DILI +VE (5-8), DILI -VE (-4)” value under setting [1] was “-VE”. Also, the DILI severity category result under setting [2] is listed as “vNo-DILI-Concern”.
Take `CCc1cc(C(N)=S)ccn1` [ethionamide]: under setting [1], the “DILI +VE (5-8), DILI -VE (-4)” value is given as “+VE”. The DILI severity category entry under setting [2] is recorded as “vLess-DILI-Concern”.
Take `CCC1(C)CC(=O)NC1=O` (stereo not shown) [ethosuximide]: the “DILI +VE (5-8), DILI -VE (-4)” value under setting [1] was “-VE”. The DILI severity category entry under setting [2] is listed as “Ambiguous DILI-concern”.
Regarding `CCOC(=O)c1cncn1[C@H](C)c1ccccc1` [etomidate], where the note is “in vivo”, the “DILI +VE (5-8), DILI -VE (-4)” value was “-VE” and the DILI severity category result is listed as “vNo-DILI-Concern”.
Take `C#C[C@]1(O)CC[C@H]2[C@@H]3CCC4=CC(=O)CC[C@@H]4[C@H]3C(=C)C[C@@]21CC` [etonogestrel]: the “DILI +VE (5-8), DILI -VE (-4)” value under setting [1] is on record as “-VE”. Also, the DILI severity category result under setting [2] was “Ambiguous DILI-concern”.
As for `Cc1cc(C#N)cc(C)c1Oc1nc(Nc2ccc(C#N)cc2)nc(N)c1Br` [etravirine], under setting [1], the “DILI +VE (5-8), DILI -VE (-4)” value is on record as “+VE”. Besides, the DILI severity category entry under setting [2] is “vMost-DILI-Concern”.
With `CO[C@H]1C[C@@H]2CC[C@@H](C)[C@@](O)(O2)C(=O)C(=O)N2CCCC[C@H]2C(=O)O[C@H]([C@H](C)C[C@@H]2CC[C@@H](OCCO)[C@H](OC)C2)CC(=O)[C@H](C)/C=C(\C)[C@@H](O)[C@@H](OC)C(=O)[C@H](C)C[C@H](C)/C=C/C=C/C=C/1C` [everolimus], the “DILI +VE (5-8), DILI -VE (-4)” value under setting [1] was “-VE”. Also, the DILI severity category result under setting [2] is recorded as “Ambiguous DILI-concern”.
With `C/C(=N\O)C(C)NCC(C)(C)CNC(C)/C(C)=N/O` (stereo not shown) [exametazime], the “DILI +VE (5-8), DILI -VE (-4)” value under setting [1] is recorded as “-VE”. Moreover, under setting [2], the DILI severity category entry is on record as “vNo-DILI-Concern”.
As to `C=C1C[C@@H]2[C@H](CC[C@]3(C)C(=O)CC[C@@H]23)[C@@]2(C)C=CC(=O)C=C12` [exemestane], under setting [1], the “DILI +VE (5-8), DILI -VE (-4)” value is reported as “+VE”. The DILI severity category result under setting [2] is “vMost-DILI-Concern”.
Turning to `O=C(c1cc(O)c(O)c(O)c1)c1ccc(O)c(O)c1O` [exifone], the “DILI +VE (5-8), DILI -VE (-4)” value under setting [1] is “+VE”. Also, the DILI severity category result under setting [2] is reported as “vMost-DILI-Concern”.
As to `CN1CCC(Nc2ncc3ncnc(Nc4ccc(F)c(Cl)c4)c3n2)CC1` [falnidamol], where the note is “in vivo”, the “DILI +VE (5-8), DILI -VE (-4)” value was “+VE” and the DILI severity category result is on record as “vMost-DILI-Concern”.
Consider `CC(=O)OCC(CCn1cnc2cnc(N)nc21)COC(C)=O` [famciclovir], for which the “DILI +VE (5-8), DILI -VE (-4)” value under setting [1] was “-VE”. The DILI severity category entry under setting [2] was “Ambiguous DILI-concern”.
For `CC(C)(Oc1ccc(C(=O)c2ccc(Cl)cc2)cc1)C(=O)O` [fenofibric acid], under setting [1], the “DILI +VE (5-8), DILI -VE (-4)” value was “-VE”. In addition, the DILI severity category entry under setting [2] is reported as “Ambiguous DILI-concern”.
Turning to `CC(C)C(=O)Oc1ccc(CO)cc1[C@H](CCN(C(C)C)C(C)C)c1ccccc1` [fesoterodine], under setting [1], the “DILI +VE (5-8), DILI -VE (-4)” value is “-VE”. Also, the DILI severity category result under setting [2] is recorded as “vNo-DILI-Concern”.
As for `COc1cccc2c1[C@@H]1CN(CCCCn3c(=O)[nH]c4c(sc5ncc(-c6ccccc6)nc54)c3=O)C[C@@H]1CO2` [fiduxosin], the “DILI +VE (5-8), DILI -VE (-4)” value under setting [1] was “+VE”. In addition, the DILI severity category entry under setting [2] was “vMost-DILI-Concern”.
For `C[C@]12CCC(=O)C=C1CC[C@H]1[C@@H]3CC[C@](O)(C(=O)CO)[C@@]3(C)C[C@H](O)[C@@]12F` [fludrocortisone], under setting [1], the “DILI +VE (5-8), DILI -VE (-4)” value is on record as “-VE”. Further, under setting [2], the DILI severity category result was “vNo-DILI-Concern”.
Consider `O=C1OC2(c3ccc(O)cc3Oc3cc(O)ccc32)c2ccccc21` [fluorescein], for which the “DILI +VE (5-8), DILI -VE (-4)” value under setting [1] is “-VE”. In addition, the DILI severity category result under setting [2] was “vNo-DILI-Concern”.
For the molecule `OCCN1CCN(CCCN2c3ccccc3Sc3ccc(C(F)(F)F)cc32)CC1` [fluphenazine], the “DILI +VE (5-8), DILI -VE (-4)” value under setting [1] is on record as “-VE”. Moreover, the DILI severity category result under setting [2] was “Ambiguous DILI-concern”.
Take `CCN(CC)CCN1C(=O)CN=C(c2ccccc2F)c2cc(Cl)ccc21` [flurazepam]: the “DILI +VE (5-8), DILI -VE (-4)” value under setting [1] was “+VE”. Besides, the DILI severity category entry under setting [2] is given as “vLess-DILI-Concern”.
`CO[C@H]1O[C@H](COS(=O)(=O)O)[C@@H](O[C@@H]2O[C@@H](C(=O)O)[C@@H](O[C@H]3O[C@H](COS(=O)(=O)O)[C@@H](O[C@@H]4O[C@H](C(=O)O)[C@@H](O[C@H]5O[C@H](COS(=O)(=O)O)[C@@H](O)[C@H](O)[C@H]5NS(=O)(=O)O)[C@H](O)[C@H]4O)[C@H](OS(=O)(=O)O)[C@H]3NS(=O)(=O)O)[C@H](O)[C@H]2OS(=O)(=O)O)[C@H](O)[C@H]1NS(=O)(=O)O` [fondaparinux sodium]: under setting [1], the “DILI +VE (5-8), DILI -VE (-4)” value is recorded as “+VE”. In addition, the DILI severity category entry under setting [2] is “vLess-DILI-Concern”.
With `CC(C)CN(C[C@@H](OP(=O)(O)O)[C@H](Cc1ccccc1)NC(=O)O[C@H]1CCOC1)S(=O)(=O)c1ccc(N)cc1` [fosamprenavir], under setting [1], the “DILI +VE (5-8), DILI -VE (-4)” value was “-VE”. In addition, under setting [2], the DILI severity category result is reported as “Ambiguous DILI-concern”.
Regarding `C[C@@H](O[C@H]1OCCN(Cc2nc(O)n(P(=O)(O)O)n2)[C@H]1c1ccc(F)cc1)c1cc(C(F)(F)F)cc(C(F)(F)F)c1` [fosaprepitant], the “DILI +VE (5-8), DILI -VE (-4)” value under setting [1] is on record as “-VE”. Further, under setting [2], the DILI severity category entry is “Ambiguous DILI-concern”.
With `C[C@@H]1O[C@@H]1P(=O)(O)O` [fosfomycin], the “DILI +VE (5-8), DILI -VE (-4)” value under setting [1] is “+VE”. For the same molecule, the DILI severity category entry under setting [2] is listed as “vLess-DILI-Concern”.
In the case of `CCC(=O)O[C@@H](O[P@](=O)(CCCCc1ccccc1)CC(=O)N1C[C@H](C2CCCCC2)C[C@H]1C(=O)O)C(C)C` [fosinopril], the “DILI +VE (5-8), DILI -VE (-4)” value under setting [1] was “+VE”. Further, under setting [2], the DILI severity category result was “vLess-DILI-Concern”.
For the molecule `O=C1NC(c2ccccc2)(c2ccccc2)C(=O)N1COP(=O)(O)O` [fosphenytoin], under setting [1], the “DILI +VE (5-8), DILI -VE (-4)” value was “+VE”. Further, under setting [2], the DILI severity category result was “vMost-DILI-Concern”.
As for `CC(C)c1cccc(C(C)C)c1OCOP(=O)(O)O` [fospropofol], the “DILI +VE (5-8), DILI -VE (-4)” value under setting [1] is on record as “+VE”. Besides, the DILI severity category entry under setting [2] was “vLess-DILI-Concern”.
